Values of other authors, collected in patent US11413253B2, “Nanoparticle delivery systems” (Celator Pharmaceuticals, Inc., priority 2015, dated 2022).

Conditions: shown in the art

Structure (SMILES) | plasma clearance of free drug
CCNC(=O)c1noc(-c2cc(C(C)C)c(O)cc2O)c1-c1ccc(CN2CCOCC2)cc1 [free AUY922, AUY922] | cleared quite rapidly
CC(=O)O[C@@]12CO[C@@H]1C[C@H](O)[C@@]1(C)C(=O)[C@H](O)C3=C(C)[C@@H](OC(=O)[C@H](O)[C@@H](NC(=O)OC(C)(C)C)c4ccccc4)C[C@@](O)([C@@H](OC(=O)c4ccccc4)[C@H]21)C3(C)C [free docetaxel, docetaxel] | cleared quite rapidly
